Patent US20230132140A1, “METHOD OF TREATING CANCER” (Celloram Inc., priority 2021, published 2023)

Key:
[1] = Immunogenicity of NeoAgs screened by Deepomics algorithm
COVID-19 patient's PBMC = settings: cited from earlier work

GVRAALPTPR (SEQ ID NO: 4) (listed as Mus sp.) [MT4-7]
immunogenic characteristics of NeoAgs [1]: poorly immunogenic

HRAERPFPEED (SEQ ID NO: 1) (listed as Mus sp.) [MT4-1]
immunogenic characteristics of NeoAgs [1]: poorly immunogenic

LTPSFPVSP (SEQ ID NO: 2) (listed as Mus sp.) [MT4-2]
immunogenic characteristics of NeoAgs [1]: poorly immunogenic

QAGPVLPTSLE (SEQ ID NO: 5) (listed as Mus sp.) [MT4-8]
immunogenic characteristics of NeoAgs [1]: poorly immunogenic

RVGGHLRLSGQ (SEQ ID NO: 3) (listed as Mus sp.) [MT4-6]
immunogenic characteristics of NeoAgs [1]: poorly immunogenic

TRFQTLLALHRSYLT (SEQ ID NO: 10) [Spike S236-250 peptide]
induction of T cell responses (COVID-19 patient's PBMC): able to induce T cell responses
